Results taken from publication PMC10722238, “Development and validation of PAMPA-BBB QSAR model to predict brain penetration potential of novel drug candidates” (Frontiers in Pharmacology, 2023).

Assay: Stirring Double-Sink PAMPA-BBB permeability assay
Assay type: in vitro ADME, porcine
Conditions: for PAMPA-BBB permeability category of control compound: control compounds used in each plate, category in words; for Papp at 60 min, 0.05 mM: pig, PAMPA, control compounds run in each plate for over 50 plates, 0.5% DMSO, phosphate buffer, room temperature, UV readout, read-out: PAMPA-BBB permeability Pe (mean ± S.D)
From the text: The stirring Double-SinkTM PAMPA-BBB method patented by Pion Inc. (Billerica, MA) was employed to determine the permeability of compounds ([[…], 2013]). The PAMPA lipid membrane, which consists of porcine brain lipid extract dissolved in alkane (Pion Inc.), was optimized to predict BBB passive permeability. This membrane was immobilized on a PVDF matrix of a 96 well “acceptor” filter plate placed on top of a 96 well “donor” plate containing coated magnetic stirrers. The test articles, stocked in 10 mM DMSO solutions, were diluted to 0.05 mM in aqueous phosphate buffer and the concentration of DMSO was 0.5% in the final solution. During the 60-min permeation study period, conducted at room temperature, the test samples in the donor compartment were stirred using the Gutbox technology (Pion Inc.) to reduce the aqueous boundary layer to 60 μm. The test article concentrations in the “donor” and “acceptor” compartments were measured using a UV plate reader (Nano Quant, Infinite® 200 PRO, Tecan Inc., Männedorf, Switzerland). Permeability (Pe) calculations were performed using Pion Inc. Software and were expressed in units of 10^-6 cm/s.

Cn1c(=O)c2c(ncn2C)n(C)c1=O [Caffeine, caffeine]
PAMPA-BBB permeability category of control compound: low permeability
Papp at 60 min, 0.05 mM: < 1 ×10⁻⁶ cm/s

NC(=O)N1c2ccccc2C=Cc2ccccc21 [Carbamazepine, carbamazepine]
PAMPA-BBB permeability category of control compound: moderate permeability
Papp at 60 min, 0.05 mM: 21 ± 2.3 ×10⁻⁶ cm/s

CC(=O)[C@H]1CC[C@H]2[C@@H]3CCC4=CC(=O)CC[C@]4(C)[C@H]3CC[C@]12C [Progesterone, progesterone]
PAMPA-BBB permeability category of control compound: high permeability
Papp at 60 min, 0.05 mM: 87 ± 10.1 ×10⁻⁶ cm/s
